Measured values: PubChem BioAssay AID1963972 (Molecular Pharmacology Branch, DTP, NCI, 2024)

System: 945468-187-T-J2-PDC spheroids viability
Test: Anticancer human tumor 945468-187-T-J2-PDC patient-derived rectal carcinoma cell line growth inhibition [PI3K]
Conditions: spheroids with HUVEC and MSC; for IC50: curve of first compound; for viability, T/C: stronger effect = lower value; active means viability on the fitted dose curve at most 10% of control; inactive means the rest
How it was run: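 Agents were dosed from a top concentration near clinical Cmax (otherwise 10 microM) in half-log decrements, alone or combined with PI3K inhibitors. The spheroids contain tumor cells plus endothelial (HUVEC) and MSC stroma; viability is measured.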

[1] = second compound 0.00316 µM, first compound 0.0316 µM
[2] = second compound 0.00316 µM, first compound 0.1 µM
[3] = second compound 0.00316 µM, first compound 0.316 µM
[4] = second compound 0.00316 µM, first compound 1 µM
[5] = second compound 0.00316 µM, first compound 3.16 µM
[6] = second compound 0.00316 µM, first compound 10 µM
[7] = second compound 0.01 µM, first compound 0.0316 µM
[8] = second compound 0.01 µM, first compound 0.1 µM
[9] = second compound 0.01 µM, first compound 0.316 µM
[10] = second compound 0.01 µM, first compound 1 µM
[11] = second compound 0.01 µM, first compound 3.16 µM
[12] = second compound 0.01 µM, first compound 10 µM
[13] = second compound 0.0316 µM, first compound 0.0316 µM
[14] = second compound 0.0316 µM, first compound 0.1 µM
[15] = second compound 0.0316 µM, first compound 0.316 µM
[16] = second compound 0.0316 µM, first compound 1 µM
[17] = second compound 0.0316 µM, first compound 3.16 µM
[18] = second compound 0.0316 µM, first compound 10 µM
[19] = second compound 0.1 µM, first compound 0.0316 µM
[20] = second compound 0.1 µM, first compound 0.1 µM
[21] = second compound 0.1 µM, first compound 0.316 µM
[22] = second compound 0.1 µM, first compound 1 µM
[23] = second compound 0.1 µM, first compound 3.16 µM
[24] = second compound 0.1 µM, first compound 10 µM
[25] = second compound 0.316 µM, first compound 0.0316 µM
[26] = second compound 0.316 µM, first compound 0.1 µM
[27] = second compound 0.316 µM, first compound 0.316 µM
[28] = second compound 0.316 µM, first compound 1 µM
[29] = second compound 0.316 µM, first compound 3.16 µM
[30] = second compound 0.316 µM, first compound 10 µM
[31] = second compound 1 µM, first compound 0.0316 µM
[32] = second compound 1 µM, first compound 0.1 µM
[33] = second compound 1 µM, first compound 0.316 µM
[34] = second compound 1 µM, first compound 1 µM
[35] = second compound 1 µM, first compound 3.16 µM
[36] = second compound 1 µM, first compound 10 µM
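Further: spheroids exposed to compounds for seven days before reading.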

C#Cc1c(F)ccc2cc(O)cc(-c3ncc4c(N5CC6CCC(C5)N6)nc(OCC56CCCN5CC(F)C6)nc4c3F)c12 (stereo unspecified) + COc1c(OCCCN2CCOCC2)ccc2c3n(c(=NC(=O)c4cnc(N)nc4)nc12)CCN3
> 10 µM: IC50 (second compound 0.00316 µM) | IC50 (second compound 0.01 µM) | IC50 (second compound 0.0316 µM) | IC50 (second compound 0.1 µM)
inactive: viability, T/C [1] 124% | viability, T/C [2] 91.1% | viability, T/C [3] 121% | viability, T/C [4] 102% | viability, T/C [5] 121% | viability, T/C [6] 94.1% | viability, T/C [7] 107% | viability, T/C [8] 98.8% | viability, T/C [9] 104% | viability, T/C [10] 88.1% | viability, T/C [11] 81.1% | viability, T/C [12] 97% | viability, T/C [13] 79% | viability, T/C [14] 114% | viability, T/C [15] 94.2% | viability, T/C [16] 110% | viability, T/C [17] 99% | viability, T/C [18] 104% | viability, T/C [19] 70.2% | viability, T/C [20] 95% | viability, T/C [21] 79.2% | viability, T/C [22] 81.4% | viability, T/C [23] 83.4% | viability, T/C [24] 59.8% | viability, T/C [25] 44.6% | viability, T/C [26] 41.3% | viability, T/C [27] 45% | viability, T/C [28] 41.8% | viability, T/C [29] 33.1% | viability, T/C [30] 26.9% | viability, T/C [31] 18.7% | viability, T/C [32] 17.3% | viability, T/C [33] 18.1% | viability, T/C [34] 19.2% | viability, T/C [35] 19.1% | viability, T/C [36] 14.4%
< 0.0316 µM: IC50 (second compound 0.316 µM) | IC50 (second compound 1 µM)

C=CC(=O)N1CCN(c2nc(=O)n(-c3c(C)ccnc3C(C)C)c3nc(-c4c(O)cccc4F)c(F)cc23)C(C)C1 (stereo unspecified) + COc1c(OCCCN2CCOCC2)ccc2c3n(c(=NC(=O)c4cnc(N)nc4)nc12)CCN3
> 10 µM: IC50 (second compound 0.00316 µM) | IC50 (second compound 0.01 µM) | IC50 (second compound 0.0316 µM) | IC50 (second compound 0.1 µM)
inactive: viability, T/C [1] 92.6% | viability, T/C [2] 99.4% | viability, T/C [3] 107% | viability, T/C [4] 98.4% | viability, T/C [5] 103% | viability, T/C [6] 120% | viability, T/C [7] 94.6% | viability, T/C [8] 100% | viability, T/C [9] 82.8% | viability, T/C [10] 96.1% | viability, T/C [11] 98% | viability, T/C [12] 117% | viability, T/C [13] 90.6% | viability, T/C [14] 90.1% | viability, T/C [15] 108% | viability, T/C [16] 108% | viability, T/C [17] 94.7% | viability, T/C [18] 97.3% | viability, T/C [19] 81.4% | viability, T/C [20] 98.1% | viability, T/C [21] 73.1% | viability, T/C [22] 85.6% | viability, T/C [23] 85% | viability, T/C [24] 93.2% | viability, T/C [25] 36.9% | viability, T/C [26] 37.9% | viability, T/C [27] 51.2% | viability, T/C [28] 46.7% | viability, T/C [29] 37.2% | viability, T/C [30] 48.5% | viability, T/C [31] 17.9% | viability, T/C [32] 21.1% | viability, T/C [33] 21.7% | viability, T/C [34] 20.7% | viability, T/C [35] 22.7% | viability, T/C [36] 20.9%
< 0.0316 µM: IC50 (second compound 0.316 µM) | IC50 (second compound 1 µM)

CC(Cn1ccc(-c2ccc(C#N)c(Cl)c2)n1)NC(=O)c1cc(C(C)O)[nH]n1 (stereo unspecified) + COc1c(OCCCN2CCOCC2)ccc2c3n(c(=NC(=O)c4cnc(N)nc4)nc12)CCN3
inactive: viability, T/C [1] 85.6% | viability, T/C [2] 112% | viability, T/C [3] 124% | viability, T/C [4] 94.6% | viability, T/C [5] 92.2% | viability, T/C [6] 114% | viability, T/C [7] 91.3% | viability, T/C [8] 104% | viability, T/C [9] 117% | viability, T/C [10] 115% | viability, T/C [11] 105% | viability, T/C [12] 108% | viability, T/C [13] 90.7% | viability, T/C [14] 114% | viability, T/C [15] 113% | viability, T/C [16] 101% | viability, T/C [17] 108% | viability, T/C [18] 89.3% | viability, T/C [19] 79.4% | viability, T/C [20] 95% | viability, T/C [21] 81.5% | viability, T/C [22] 94.3% | viability, T/C [23] 84.8% | viability, T/C [24] 87% | viability, T/C [25] 40.8% | viability, T/C [26] 33.2% | viability, T/C [27] 49% | viability, T/C [28] 39.2% | viability, T/C [29] 42.5% | viability, T/C [30] 48.1% | viability, T/C [31] 21.3% | viability, T/C [32] 23.5% | viability, T/C [33] 22.9% | viability, T/C [34] 22% | viability, T/C [35] 24.3% | viability, T/C [36] 25.2%
> 10 µM: IC50 (second compound 0.00316 µM) | IC50 (second compound 0.01 µM) | IC50 (second compound 0.0316 µM) | IC50 (second compound 0.1 µM)
< 0.0316 µM: IC50 (second compound 0.316 µM) | IC50 (second compound 1 µM)
